The record followed here is article PMC6150735, “Molecular Docking-Based Design and Development of a Highly Selective Probe Substrate for UDP-glucuronosyltransferase 1A10” (Molecular Pharmaceutics, 2018).

Entries after “also recorded” stand apart in the source; their conditions may differ.

One data set concerns UGT1A1. Briefly: Recombinant human UGT screen: glucuronidation by UGT1A1. Format: biochemical. The conditions noted are these: 10 μM aglycone, recombinant UGTs. On the procedure:
Recombinant human UGTs 1A1, 1A3, 1A6, 1A7, 1A8, 1A9, 1A10, 2A1, 2A2, 2A3, 2B4, 2B10, 2B7, and 2B17 were produced, as His-tagged proteins, in baculovirus-infected insect cells as previously described.[37]−[39] The relative expression level of each of these recombinant UGTs was evaluated by immunodetection, using monoclonal antibody against the His-tag, as described elsewhere.[40] A numeric value of 1.0 was given to the expression level of UGT1A8 and the relative expression level of each of the other UGTs was related to this value. Normalized activities were obtained by dividing the glucuronidation rate values by the relative expression level of the tested UGT. […] The expression levels of the UGTs in the commercial samples could not be determined, so their protein concentration was used to calculate the reaction rate.
The incubation mixtures for glucuronidation assays contained 100 mM Tris-HCl buffer pH 7.4, 2.5 mM MgCl2, 0.5 mM UDPGA, recombinant UGT, or microsomes as the enzyme source and 0–15 μM of the test aglycone substrate. […] In subsequent experiments, the control samples lacked the enzyme source since it gave the highest fluorescence background. […] Fluorescence spectra (excitation 200–420 nm; emission 400–600 nm) or fluorescence decrease at 390 nm excitation and 460 nm emission, were measured in these preliminary experiments, using a Shimadzu RF-5000 spectrophotofluorometer. […]

Data set [1] can be described thus: Absorbance spectra of coumarin derivatives. Format: physicochemical. The conditions noted are these: 10 μM, 100 mM Tris–HCl pH 7.4, 10% dimethyl sulfoxide. The protocol:
The absorbance spectra of 10 μM coumarin derivatives at 100 mM Tris–HCl pH 7.4 containing 10% dimethyl sulfoxide were measured using a Hitachi U-2000 Spectrophotometer (Tokyo, Japan). Excitation and emission fluorescence spectra of 0.1 μM coumarin derivatives in 100 mM Tris-HCl pH 7.4 were measured using a Shimadzu RF-5000 spectrophotofluorometer (Tokyo, Japan). The excitation spectra was from 200 to 420 at 460 nm emission and the emission spectra was from 400 to 600 at 390 nm excitation (data in Supplementary Table S1 and Figures S1 and S2). The effect of pH on fluorescence intensity was determined at 405 nm excitation and 460 nm emission, in the presence of 1.5% trichloroacetic acid, 100 mM phosphate buffers at pH 5, 6, 7, 8, and 9, or 1.6 M glycine–NaOH pH 10.4.

A short description of data set [2]: Excitation and emission fluorescence spectra of coumarin derivatives. Also noted: dose or concentration left out as unconfirmed. Format: physicochemical. The protocol: The absorbance spectra of 10 μM coumarin derivatives at 100 mM Tris–HCl pH 7.4 containing 10% dimethyl sulfoxide were measured using a Hitachi U-2000 Spectrophotometer (Tokyo, Japan). […] The excitation spectra was from 200 to 420 at 460 nm emission and the emission spectra was from 400 to 600 at 390 nm excitation (data in Supplementary Table S1 and Figures S1 and S2). The effect of pH on fluorescence intensity was determined at 405 nm excitation and 460 nm emission, in the presence of 1.5% trichloroacetic acid, 100 mM phosphate buffers at pH 5, 6, 7, 8, and 9, or 1.6 M glycine–NaOH pH 10.4.

In data set [3] the target is T1, UGT1A10 mutant 1A10-H210M (Homo sapiens, UniProt Q9HAW8, H210M).
T1 construct: His-tag; made in house; host or cells: baculovirus-infected SF9 insect cells
T1 sequence (Q9HAW8 26-530 H210M): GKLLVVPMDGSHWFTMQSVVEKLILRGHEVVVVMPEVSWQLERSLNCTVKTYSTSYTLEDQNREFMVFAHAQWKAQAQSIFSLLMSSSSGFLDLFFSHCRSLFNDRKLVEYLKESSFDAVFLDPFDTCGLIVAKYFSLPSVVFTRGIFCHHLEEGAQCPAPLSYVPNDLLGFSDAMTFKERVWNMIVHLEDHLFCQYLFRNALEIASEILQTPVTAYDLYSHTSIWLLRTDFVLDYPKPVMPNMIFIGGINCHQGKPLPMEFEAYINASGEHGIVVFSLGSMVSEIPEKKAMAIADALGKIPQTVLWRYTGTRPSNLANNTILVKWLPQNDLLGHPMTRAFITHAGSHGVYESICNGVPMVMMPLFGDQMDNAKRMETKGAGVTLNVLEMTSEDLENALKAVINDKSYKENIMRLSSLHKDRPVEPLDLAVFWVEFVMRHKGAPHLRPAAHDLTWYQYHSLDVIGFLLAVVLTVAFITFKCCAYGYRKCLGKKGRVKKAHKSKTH
Briefly: Glucuronidation kinetics by UGT1A10 mutant 1A10-H210M (fluorescence decrease, 96-well plate). It is filed as biochemical. The settings on record: mutant versus wild-type UGT1A10. On the procedure: The UGT1A10 mutant 1A10-H210 M was prepared according to the QuikChange methodology, using the cloned UGT1A10 in pFastBac[42] as a template and the following two oligonucleotides:
The entire coding sequence of UGT1A10 in the mutant clone was sequenced, and subsequently, recombinant baculovirus was prepared and used to express the mutant enzyme in baculovirus-infected SF9 insect cells.
The incubation mixtures for glucuronidation assays contained 100 mM Tris-HCl buffer pH 7.4, 2.5 mM MgCl2, 0.5 mM UDPGA, recombinant UGT, or microsomes as the enzyme source and 0–15 μM of the test aglycone substrate. When the incubation mixtures contained microsomes, alamethicin was used at a final concentration of 12.5 μg/mL, but it was not included in the recombinant enzyme assays.[43] In the first experiments three negative control samples were tested, namely (i) without the substrate 7-hydroxycoumarin derivative, (ii) without the cofactor UDPGA, or (iii) without the enzyme source. In subsequent experiments, the control samples lacked the enzyme source since it gave the highest fluorescence background. […] Fluorescence spectra (excitation 200–420 nm; emission 400–600 nm) or fluorescence decrease at 390 nm excitation and 460 nm emission, were measured in these preliminary experiments, using a Shimadzu RF-5000 spectrophotofluorometer.
Most of the glucuronidation assays were carried out in 96 multiwell plate format, and incubations were carried out in 100 μL and at 37 °C, in the presence of Tris–HCl buffer pH 7.4, UDPGA, and the tested 7-hydroxycoumarin derivative, at the indicated concentrations. Fluorescence decline in the multiwell plate experiments was monitored every other minute, for 40 min, using an excitation filter at 405 nm and detection at 460 nm, in a Victor2 1420 Multilabel counter (PerkinElmer, Life Sciences, Turku, Finland). The fluorescence values were transformed into molarity using the aglycone substrates for making the respective standard curves. […] Enzyme catalyzed glucuronidation rate was calculated by subtracting the blank value from the full reaction value. […]

The subject of another data set is human UGTs. Briefly: Recombinant human UGT screen: glucuronidation rates across human UGTs. It is filed as biochemical. The settings on record: 10 μM aglycone; other UGTs at very low rates. The protocol: Recombinant human UGTs 1A1, 1A3, 1A6, 1A7, 1A8, 1A9, 1A10, 2A1, 2A2, 2A3, 2B4, 2B10, 2B7, and 2B17 were produced, as His-tagged proteins, in baculovirus-infected insect cells as previously described.[37]−[39] The relative expression level of each of these recombinant UGTs was evaluated by immunodetection, using monoclonal antibody against the His-tag, as described elsewhere.[40] A numeric value of 1.0 was given to the expression level of UGT1A8 and the relative expression level of each of the other UGTs was related to this value. Normalized activities were obtained by dividing the glucuronidation rate values by the relative expression level of the tested UGT. In addition, UGTs 1A4, 2B10, and 2B15 were purchased from Corning Life Sciences (New York) and are marked, in Figure 5, with a “C” to indicate that they are commercial enzymes. The expression levels of the UGTs in the commercial samples could not be determined, so their protein concentration was used to calculate the reaction rate.
(§1) The incubation mixtures for glucuronidation assays contained 100 mM Tris-HCl buffer pH 7.4, 2.5 mM MgCl2, 0.5 mM UDPGA, recombinant UGT, or microsomes as the enzyme source and 0–15 μM of the test aglycone substrate. When the incubation mixtures contained microsomes, alamethicin was used at a final concentration of 12.5 μg/mL, but it was not included in the recombinant enzyme assays.[43] In the first experiments three negative control samples were tested, namely (i) without the substrate 7-hydroxycoumarin derivative, (ii) without the cofactor UDPGA, or (iii) without the enzyme source. In subsequent experiments, the control samples lacked the enzyme source since it gave the highest fluorescence background. Preliminary experiments were done under different conditions than most of the later assays, namely in 2.5 mL of 100 mM phosphate buffer pH 7.4, containing 500 μg pig liver microsomes, 1.0 μM compound 6 and 0.5 mM UDPGA, at room temperature. Fluorescence spectra (excitation 200–420 nm; emission 400–600 nm) or fluorescence decrease at 390 nm excitation and 460 nm emission, were measured in these preliminary experiments, using a Shimadzu RF-5000 spectrophotofluorometer.
(§2) Most of the glucuronidation assays were carried out in 96 multiwell plate format, and incubations were carried out in 100 μL and at 37 °C, in the presence of Tris–HCl buffer pH 7.4, UDPGA, and the tested 7-hydroxycoumarin derivative, at the indicated concentrations. Fluorescence decline in the multiwell plate experiments was monitored every other minute, for 40 min, using an excitation filter at 405 nm and detection at 460 nm, in a Victor2 1420 Multilabel counter (PerkinElmer, Life Sciences, Turku, Finland). The fluorescence values were transformed into molarity using the aglycone substrates for making the respective standard curves. Slopes of the substrate concentration decrease per minute were calculated using linear regression analysis, in which the linear part of the kinetic assay indicated the glucuronidation rate. Enzyme catalyzed glucuronidation rate was calculated by subtracting the blank value from the full reaction value. The intra-assay variability of the kinetic assays was 6% when compound 6 was used as the aglycone substrate. Kinetic analyses were also performed in the same 96 multiwell plates format, with excitation filter at 405 nm and detection at 460 nm, using 6–8 different substrate concentrations per substrate and two different protein concentrations for both the wild-type and mutant UGT1A10. The higher concentrations, 13.5 mg/L for UGT1A10 and 12.0 mg/L for the UGT1A10 mutant, were used when the substrates were HFC, compounds 4 and 6, whereas the lower protein concentrations, 6.75 and 6.0 mg/L for UGT1A10 and the mutant, respectively, were used when the substrates were compounds 1, 2, 3, and 5.

For data set [4], the system named is human liver microsomes (HLM). Briefly: Glucuronidation by human liver microsomes (HLM). Format: in vitro ADME. The conditions noted are these: 10 μM aglycone. On the procedure: A commercial HLM pool (cat no:452210, BD Gentest, Bedford, MA) and human intestine microsomes (HIM) pool (lot. no 1110189, XenoTech, Kansas City, KS) were purchased. Pig liver samples were prepared from untreated female pigs that were used for practicing surgical procedures at the University of Kuopio (currently: University of Eastern Finland, Kuopio campus). Other animal liver microsomes were prepared as described previously.[41] The Ethics Committee for Animal Experiments, University of Kuopio, approved these experiments.
as §1, §2
Background: Microsomes from liver hold many membrane-bound enzymes, among them those of drug oxidation.

As to `O=c1oc2cc(O)ccc2cc1-c1ccc(F)cc1` [Compound 1, 7-hydroxy-3-(4-fluorophenyl)-2H-chromen-2-one], in the data set on UGT1A1, the “Glucuronidation rate by UGT1A1 relative to the corresponding UGT1A10 rate” value is listed as “about 40%”. Moreover, in data set [1], the Amax is 344 nm and the ε abs was found to be 19000 M⁻¹ cm⁻¹. Moreover, the “Fluorescence EMmax” value in data set [2] was found to be 466 nm.

Regarding `O=c1oc2cc(O)ccc2cc1-c1ccc(O)cc1` [Compound 2, 7-hydroxy-3-(4-hydroxyphenyl)-2H-chromen-2one], the “Change of Km by the H210M mutation (in words)” value in data set [3] was “considerably increased”. The “Selectivity among human UGTs” value in the data set with human UGTs was “selective for UGT1A10”. Moreover, the “Glucuronidation by HLM (in words)” value in data set [4] is listed as “not glucuronidated by HLM at all, or only at very low rates; also recorded: very low or below the detection limit”. In addition, in data set [1], the Amax is listed as 352 nm and the ε abs amounted to 20000 M⁻¹ cm⁻¹. Further, in data set [2], the “Fluorescence EMmax” value is recorded as 475 nm and the “Fluorescence EXmax” value was found to be 395 nm.
